Values of other authors in US20110105330A1, “C[…]” (priority 2009, published 2011).

Conditions: ph 1.9, 20° C.

O=C(O)CNCP(=O)(O)O [Glyphosate, n-(phosphonomethyl) glycine]
solubility in water: approximately 10.5 g/L
